Assay [1] deals with TfIMPDH (Tritrichomonas foetus, UniProt P50097). The note with it: cited from earlier work; for Ki: TfIMPDH, ref Riera, et al., 2008.
Assay [2] concerns the target SpIMPDH (Streptococcus pyogenes, UniProt P0C0H6). The assay can be described thus: biochemical.
Assay [3] addresses LdIMPDH (Leishmania donovani, UniProt P21620). Nature of the assay: IMPDH inhibition, L. donovani enzyme. In kind it is biochemical.
Assay [4] deals with EcIMPDH-S250A/L444Y (Escherichia coli, UniProt P0ADG7, L444Y/S250A). The assay can be described thus: biochemical.
Assay [5] addresses T1, BbIMPDH (Borreliella burgdorferi, UniProt P49058).
T1 sequence (P49058 1-404): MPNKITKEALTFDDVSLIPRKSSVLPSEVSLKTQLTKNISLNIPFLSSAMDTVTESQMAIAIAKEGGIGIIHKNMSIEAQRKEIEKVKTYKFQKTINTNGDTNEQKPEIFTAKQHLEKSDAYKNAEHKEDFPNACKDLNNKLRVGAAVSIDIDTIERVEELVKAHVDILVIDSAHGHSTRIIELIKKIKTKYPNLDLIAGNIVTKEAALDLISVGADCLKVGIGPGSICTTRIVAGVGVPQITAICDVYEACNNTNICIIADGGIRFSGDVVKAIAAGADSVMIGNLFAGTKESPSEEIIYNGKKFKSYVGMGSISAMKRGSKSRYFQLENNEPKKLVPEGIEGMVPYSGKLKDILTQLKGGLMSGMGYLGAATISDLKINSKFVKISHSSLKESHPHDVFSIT
Nature of the assay: IMPDH inhibition, B. burgdorferi enzyme. In kind it is biochemical.

Assay [6] has as its target EcIMPDH (Escherichia coli, UniProt P0ADG7). The assay can be described thus: IMPDH inhibition, E. coli enzyme. In kind it is biochemical.
Assay [7] has as its target T2, HpIMPDH (Helicobacter pylori, UniProt P56088).
T2 sequence (P56088 1-481): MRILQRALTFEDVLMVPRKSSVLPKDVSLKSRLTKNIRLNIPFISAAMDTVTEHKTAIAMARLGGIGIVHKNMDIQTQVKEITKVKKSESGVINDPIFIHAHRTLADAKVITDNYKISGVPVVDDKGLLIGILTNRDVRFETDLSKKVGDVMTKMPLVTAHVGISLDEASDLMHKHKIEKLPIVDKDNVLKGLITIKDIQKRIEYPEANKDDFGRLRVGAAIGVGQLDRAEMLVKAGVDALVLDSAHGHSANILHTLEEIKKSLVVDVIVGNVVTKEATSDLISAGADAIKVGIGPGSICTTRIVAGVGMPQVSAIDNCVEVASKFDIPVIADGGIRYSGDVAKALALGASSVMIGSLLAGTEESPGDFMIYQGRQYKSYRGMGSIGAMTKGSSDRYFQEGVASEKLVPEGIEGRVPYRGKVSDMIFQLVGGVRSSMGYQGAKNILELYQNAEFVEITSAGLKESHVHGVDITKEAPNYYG
The assay can be described thus: IMPDH inhibition, H. pylori enzyme. In kind it is biochemical.

Assay [8] deals with EcIMPDH-S250A (Escherichia coli, UniProt P0ADG7, S250A). Nature of the assay: biochemical.
In assay [9] the target is T3, CpIMPDH (Cryptosporidium parvum, UniProt Q8T6T2).
T3 sequence (Q8T6T2 1-400): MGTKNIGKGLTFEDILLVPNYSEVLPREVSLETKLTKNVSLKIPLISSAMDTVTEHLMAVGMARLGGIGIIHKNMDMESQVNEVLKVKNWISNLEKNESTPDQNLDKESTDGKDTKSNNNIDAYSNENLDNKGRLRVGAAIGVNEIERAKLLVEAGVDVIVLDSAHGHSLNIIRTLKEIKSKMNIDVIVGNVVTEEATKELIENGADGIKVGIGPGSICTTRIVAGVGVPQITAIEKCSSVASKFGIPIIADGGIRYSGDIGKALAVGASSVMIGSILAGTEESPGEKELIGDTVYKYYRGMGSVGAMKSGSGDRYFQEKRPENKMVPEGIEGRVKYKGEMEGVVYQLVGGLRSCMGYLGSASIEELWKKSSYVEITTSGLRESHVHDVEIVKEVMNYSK
Conditions: cited from earlier work.

SMILES strings stand for the structures. Like-named read-outs stand apart in the source and are kept apart here.

TfIMPDH, sequence (P50097 whole entry): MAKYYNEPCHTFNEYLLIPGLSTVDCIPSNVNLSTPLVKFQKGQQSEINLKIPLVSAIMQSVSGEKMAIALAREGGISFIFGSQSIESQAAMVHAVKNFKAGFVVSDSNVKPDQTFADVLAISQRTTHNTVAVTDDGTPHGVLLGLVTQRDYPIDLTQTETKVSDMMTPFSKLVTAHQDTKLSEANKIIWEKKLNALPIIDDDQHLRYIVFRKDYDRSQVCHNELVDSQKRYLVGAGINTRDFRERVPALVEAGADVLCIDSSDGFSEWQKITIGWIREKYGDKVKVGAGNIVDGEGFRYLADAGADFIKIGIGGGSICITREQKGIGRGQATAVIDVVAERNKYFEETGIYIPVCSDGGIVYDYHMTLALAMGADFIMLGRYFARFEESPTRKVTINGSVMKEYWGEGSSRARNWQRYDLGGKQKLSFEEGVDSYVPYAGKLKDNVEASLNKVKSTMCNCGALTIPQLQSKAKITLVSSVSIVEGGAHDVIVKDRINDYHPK
SpIMPDH, sequence (P0C0H6 whole entry): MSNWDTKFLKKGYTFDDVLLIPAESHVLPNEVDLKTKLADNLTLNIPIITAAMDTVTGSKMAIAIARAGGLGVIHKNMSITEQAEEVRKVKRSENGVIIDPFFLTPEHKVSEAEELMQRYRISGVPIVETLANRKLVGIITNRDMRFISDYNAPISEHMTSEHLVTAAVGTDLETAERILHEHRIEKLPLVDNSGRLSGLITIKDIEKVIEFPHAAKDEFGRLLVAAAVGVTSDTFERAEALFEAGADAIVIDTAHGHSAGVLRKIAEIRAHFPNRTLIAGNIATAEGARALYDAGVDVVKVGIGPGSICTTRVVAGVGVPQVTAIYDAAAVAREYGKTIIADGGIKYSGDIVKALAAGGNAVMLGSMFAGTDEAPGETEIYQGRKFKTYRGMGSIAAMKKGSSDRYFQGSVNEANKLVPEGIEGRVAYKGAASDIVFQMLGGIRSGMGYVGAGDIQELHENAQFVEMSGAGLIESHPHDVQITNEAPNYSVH
LdIMPDH, sequence (P21620 whole entry): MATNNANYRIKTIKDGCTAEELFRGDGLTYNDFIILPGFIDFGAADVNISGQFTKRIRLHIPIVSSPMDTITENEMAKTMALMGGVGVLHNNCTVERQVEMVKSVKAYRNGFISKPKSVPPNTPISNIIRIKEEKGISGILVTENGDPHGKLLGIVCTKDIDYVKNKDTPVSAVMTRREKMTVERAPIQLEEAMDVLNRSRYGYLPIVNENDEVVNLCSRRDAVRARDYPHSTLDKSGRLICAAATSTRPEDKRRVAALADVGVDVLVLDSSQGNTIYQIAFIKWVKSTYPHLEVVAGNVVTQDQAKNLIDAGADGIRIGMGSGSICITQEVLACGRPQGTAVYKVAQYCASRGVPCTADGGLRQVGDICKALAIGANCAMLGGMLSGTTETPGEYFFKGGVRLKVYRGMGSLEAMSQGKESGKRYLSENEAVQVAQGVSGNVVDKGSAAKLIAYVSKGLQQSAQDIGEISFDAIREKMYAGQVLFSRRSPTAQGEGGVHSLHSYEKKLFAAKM
EcIMPDH, sequence (P0ADG7 whole entry): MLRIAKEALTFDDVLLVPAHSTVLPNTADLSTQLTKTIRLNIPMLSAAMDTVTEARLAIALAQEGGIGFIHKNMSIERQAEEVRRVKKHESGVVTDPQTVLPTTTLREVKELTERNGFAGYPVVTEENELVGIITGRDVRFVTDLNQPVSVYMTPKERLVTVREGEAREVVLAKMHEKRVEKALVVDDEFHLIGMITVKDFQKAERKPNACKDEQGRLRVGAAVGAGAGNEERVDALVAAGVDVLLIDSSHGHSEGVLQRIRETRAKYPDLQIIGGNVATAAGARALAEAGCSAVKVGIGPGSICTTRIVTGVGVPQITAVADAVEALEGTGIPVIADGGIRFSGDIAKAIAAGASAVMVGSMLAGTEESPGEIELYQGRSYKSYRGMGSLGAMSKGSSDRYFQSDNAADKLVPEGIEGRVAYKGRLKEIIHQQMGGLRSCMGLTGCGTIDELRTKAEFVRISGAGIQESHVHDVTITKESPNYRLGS
EcIMPDH-S250A, sequence (P0ADG7 whole entry S250A): as the sequence (P0ADG7 whole entry) above, with S250A counted along it
EcIMPDH-S250A/L444Y, sequence (P0ADG7 whole entry S250A/L444Y): as the sequence (P0ADG7 whole entry) above, with S250A, L444Y counted along it

Take `NC(=O)c1csc([C@@H]2O[C@H](CO)[C@@H](O)[C@H]2O)n1` [Tzf, tiazofurin]: the Ki in assay [1] (read-out: Ki Tzf) was 69 ± 9 mM; in assay [2] it was 8 ± 1 mM; in assay [3] it was 8.3 ± 0.7 mM; in [4] it was 1.1 ± 0.2 mM; in [5] it was 1.1 ± 0.2 mM; in [6], 5.3 ± 0.6 mM. In addition, the Ki is 1.3 ± 0.1 mM in assay [7]; 2.5 ± 0.3 mM in assay [8]; 1.5 ± 0.1 mM in [9] (read-out: Ki Tzf, ref Riera, et al., 2008).

For the molecule `Nc1ncnc2c1ncn2[C@@H]1O[C@H](COP(=O)(O)OP(=O)(O)O)[C@@H](O)[C@H]1O` [ADP], the inhibitory constant (Ki) was 31 ± 2 mM in assay [1] (read-out: Ki ADP); 13 ± 2 mM in [2] (read-out: Ki ADP, SpIMPDH); 15 ± 2 mM in assay [3] (read-out: Ki ADP, LdIMPDH); 4.1 ± 0.7 mM in assay [4] (read-out: Ki ADP, EcIMPDH-S250A/L444Y); 7.4 ± 0.6 mM in assay [5] (read-out: Ki ADP, BbIMPDH); 10 ± 2 mM in assay [6] (read-out: Ki ADP, EcIMPDH). Besides, the Ki in [7] (read-out: Ki ADP, HpIMPDH) is 6 ± 0.5 mM; in [8] (read-out: Ki ADP, EcIMPDH-S250A), 0.1 ± 0.01 mM; in assay [9] (read-out: Ki ADP, ref Riera, et al., 2008) it was 42 ± 6 mM.

For the molecule `COc1c(C)c2c(c(O)c1C/C=C(\C)CCC(=O)O)C(=O)OC2` [mycophenolic acid], the “Fold more resistant than human IMPDH2 (TfIMPDH)” value in [1] (TfIMPDH vs human IMPDH2, ref Digits and Hedstrom, 2000) is 400 fold.

(Values after publication PMC2991053 (Chemistry & biology, 2010).)
